# Laboratory results taken from patent US20110064794A1, “Drug Delivery System, its Preparation Process and Use” (priority 2008, published 2011).
# Tests used:
# [1] = tested on: Transplanted liver cancer (H22); experiment: anti-tumor test in transplanted liver cancer (H22) model; assay type: in vivo, nude mice; conditions: 20 mg/kg
# Experimental: (§1) Transplanted liver cancer (H22) model in nude mice were established for antitumor drug tests. The nude mice were randomly divided into six groups (10 animals for each group): blank control group, cyclophosphamide positive control group (CTX 20 mg·kg^−1), treatment groups (high, medium and low dosage, 0.20 mg·kg^−1, 0.10 mg·kg^−1 and 0.05 mg·kg^−1) and solution group (non-nanoparticle formulation). The negative control group received injection of physiological saline. After inoculation for four days and with the tumors grown to a certain volume, the mice were treated on the 5th, 7th, 9th, 11th and 13th day. On the 14th day, the mice were sacrificed by cervical dislocation and weighed, dissected to peel off the tumor tissue which was weighed by an electronic balance. The tumor-inhibition rates were calculated by using the following formula: […]
# (§2) all the data were expressed as mean±standard deviation (i.e. x±SD); the mice were bled at caudal vein for routine white blood cell count.
# white blood cell = experiment: routine white blood cell count in H22 model mice; assay type: in vivo, nude mice; conditions: 20 mg·kg^−1
# Experimental: as §1, §2
# [2] = tested on: human laryngocarcinoma epithelial cells (Hep-2); experiment: MTT inhibition of tumor cell growth, Hep-2; assay type: cell-based; conditions: 0.1, 1, 10 and 100 μM in DMSO, different culture times (FIG. 7)
# Text: Microplate Reader (Switzerland Sunrise); 3-(4,5-dimethylthiazol-2-yl)-2, 5-diphenyl-2H-tetrazolium bromide (MTT) (America Fluka); DMSO (Sigma); RPMI 1640 media (GIBCO); fetal bovine serum (FBS) (Tian Jin TBD Center for Biotechnology Development).
# Studies were respectively carried out on the inhibition effect of cucurbitacin B HSA nanoparticle on the growth of tumor cells in vitro in human laryngocarcinoma epithelial cells (Hep-2), human hepatoma carcinoma cell (HepG-2), human adenocarcinoma of lung cell (A549), and inhibition effect of the same dosage of cucurbitacin B emulsion and liposomes in these cells were compared.
# Cells were cultured in RPMI 1640 media containing 10% FBS in an incubator at 37° C. and 5% CO2, and passaged every 3 to 4 days. […] OD (optical density) value of each well was determined in the microplate reader (at 570 nm wavelength). Cell inhibition rate was calculated according to OD value, and the following formula was used: cell inhibition rate (IR)=[(mean OD value of control group−mean OD value of blank group)−(mean OD value of test groups−mean OD value of blank group)]/(mean OD value of control group−mean OD value of blank group). […]
# Inhibition effects of various formulations of CuB (cucurbitacin B/HSA solution, CuB HSA nanoparticle, CuB liposome and CuB emulsion) on Hep-2, A549 and HepG-2 tumor cells were detected.
SMILES,Body weight (g) begin [1] [g],Body weight (g) end [1] [g],Number of mice (begin/end) [1],Tumor-inhibition rate (%) ([1]; day 14),Weight of tumor (g) (x ± SD) ([1]; day 14),leukocyte number (white blood cell) [L⁻¹],inhibition effect on the growth of Hep-2 cells [2]
"O=P1(N(CCCl)CCCl)NCCCO1 (stereo not shown) [CTX, cyclophosphamide]",19.77,21.08,10/9,55.3,1.26 ± 0.63,3.11e+09,–
CC(=O)OC(C)(C)/C=C/C(=O)[C@](C)(O)[C@H]1[C@H](O)C[C@@]2(C)[C@@H]3CC=C4[C@H](C[C@H](O)C(=O)C4(C)C)[C@]3(C)C(=O)C[C@]12C [cucurbitacin B],–,–,–,–,–,–,enhanced along with the extended time and increased dose
